Key:
rCD45 = biological target: T1, rCD45 (Homo sapiens, UniProt P08575); assay: inhibition of rCD45-mediated JAK2 dephosphorylation; assay type: biochemical; conditions: 0.1 mM Na3 VO4, 10 U rCD45
T1 construct: The rCD45 employed contained the intracellular dual PTPase domains with a relative molecular mas of 97,000 (Mr 97K); purchased Calbiochem
T1 sequence (P08575 599-1306 limits assumed): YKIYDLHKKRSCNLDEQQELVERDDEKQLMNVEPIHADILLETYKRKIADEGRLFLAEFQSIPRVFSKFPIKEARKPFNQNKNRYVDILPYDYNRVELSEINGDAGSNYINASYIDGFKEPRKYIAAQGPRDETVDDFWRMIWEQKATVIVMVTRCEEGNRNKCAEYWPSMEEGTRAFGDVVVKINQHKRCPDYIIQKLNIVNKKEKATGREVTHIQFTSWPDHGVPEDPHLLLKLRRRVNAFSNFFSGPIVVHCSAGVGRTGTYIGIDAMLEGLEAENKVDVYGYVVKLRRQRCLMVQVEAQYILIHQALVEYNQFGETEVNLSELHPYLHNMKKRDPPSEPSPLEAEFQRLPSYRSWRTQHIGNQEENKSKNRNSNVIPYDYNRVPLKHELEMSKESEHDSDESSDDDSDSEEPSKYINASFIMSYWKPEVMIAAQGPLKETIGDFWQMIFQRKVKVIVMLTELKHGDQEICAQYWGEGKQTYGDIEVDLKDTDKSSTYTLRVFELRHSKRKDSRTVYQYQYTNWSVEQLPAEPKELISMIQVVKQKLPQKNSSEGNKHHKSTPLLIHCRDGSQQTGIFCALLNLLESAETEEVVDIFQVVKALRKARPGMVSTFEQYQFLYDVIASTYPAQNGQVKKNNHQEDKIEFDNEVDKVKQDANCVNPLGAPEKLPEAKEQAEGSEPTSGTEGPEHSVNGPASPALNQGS
Protocol: For tyrosine phosphatase assays, immunoprecipitated Lyn, JAKs or STATs from lysates of 10^7 BMMCs (for Lyn, JAK1, JAK2, STAT3 and STAT5) or macrophages (for Tyk2) were washed in lysis buffer and phosphatase reaction buffer [Felberg et al., J. Biol. Chem. 273:17839-17845, 1998]. The amounts of Lyn and JAK2 in the immunoprecipitates used in FIG. 3A were 72 ng and 48 ng, respectively, as determined by silver staining. Recombinant CD45 was added to substrates in the presence or absence of 0.1 mM Na3 VO4 followed by incubation at 30° C. for 20 min. Tyrosine phosphorylation was monitored by immunoblotting with phosphotyrosine-specific antibodies. The extent of tyrosine phosphorylation and amount of substrates were determined by quantifying the intensities of the immunoblots with NIH Image 1.61 software. Kinase activity in anti-Lyn or anti-JAK immunoprecipitates was assessed by an in vitro kinase assay with Raytide (Oncogen Science) as a substrate or using authophosphorylation [Lui et al., Genes Dev. 13:786-791, 1999]. In vitro binding assays were performed as described [Felberg et al., J. Biol. Chem. 273:17839-17845, 1998], using 1 μg of soluble GST, GST-CD45-D2, or GST-PTPase-dead CD45 (D1:C828S). EMSAs were as described [Charurvedi et al., Mol. Cell. Biol. 17:3295-3304, 1997]. The sequences of the EMSA probes were: STAT3, 5′-[…]-3′ (SEQ ID NO: 1); STAT3 mutant, 5′-[…]-3′ (SEQ ID NO: 2). […]

Coxsackievirus B3 (CVB3) = assay: CVB3 replication in Jurkat cells, plaque-forming assay; assay type: cell-based, human; conditions: IFN-α 1,000 units/ml pretreatment 4 h; cd45-deficient vs parental Jurkat cells
Protocol: For Coxsackievirus infections in vitro, Jurkat cells were pretreated with IFN-α (1,000 units ml−^1) for 4 h and inoculated in triplicate with 3×10^5 CVB3 for 1 h at 37° C. Cells were then washed to remove excess IFN-α and excess CBV3 virus, and resuspended in RPMI medium containing 10% FBS. After 24 h, culture supernatants were analyzed for the presence of infectious CVB3 by using plaque-forming assays in HeLa cell monolayers. For CVB3 infections in vivo , the cd45mutation was backcrossed onto an A/J (H2^k/k ) background for five generations. A/J (H2^k/k) mice are highly susceptible to acute and chronic CVB3 infections. Four-week-old mice were inoculated intraperitoneally with 10^5 plaque-forming units of CVB3. For lethality scores, cd45−^/− (n=25) and cd45^± (n=22) littermate mice were monitored daily after infection. […] At defined time points, mice were sacrificed and organs were processed for histology. Sections from eight mice per group were stained with haematoxylin/eosin and Masson blue. In all experiments, the CVB3 strain Gauntt-Chow was used.
IFN-α and IFN-α R-regulated signaling are critical for replication of the picomavirus Coxsackievirus B3 (CVB3) in vitro and CVB3 infections in vivo [Kandolf et al., J. Mol. Cell. Cardiol. 17:167-181, 1985]. […] CVB3 titres were measured after infection of parental or cd45-deficient Jurkat cell lines. […]

JAK2 = JAK2 activation/phosphorylation in IL-3 stimulated BMMCs treated with Src inhibitor; assay type: cell-based, mouse
Protocol: (§1) Murine BMMCs, splenic B cells, thymocytes, peritoneal macrophages and Jurkat T-cell lines were stimulated with various cytokines. For immunoprecipitations, lysates were incubated with antibodies conjugated with agarose or Sepharose beads for 2 h at 4° C. Total cell lysates or immunoprecipitates were separated using SDS-polyacrylamide gel electrophoresis, transferred onto membranes and immunoblotted. COS cells were transfected using diethylaminoethyl-dextron transfection technique with wild-type or PTPase-dead CD45 (D1:C828s) as described [McKenney et al., J. Biol. Chem. 270:24949-24954, 1995].
For tyrosine phosphatase assays, immunoprecipitated Lyn, JAKs or STATs from lysates of 10^7 BMMCs (for Lyn, JAK1, JAK2, STAT3 and STAT5) or macrophages (for Tyk2) were washed in lysis buffer and phosphatase reaction buffer [Felberg et al., J. Biol. Chem. 273:17839-17845, 1998]. The amounts of Lyn and JAK2 in the immunoprecipitates used in FIG. 3A were 72 ng and 48 ng, respectively, as determined by silver staining. […] Tyrosine phosphorylation was monitored by immunoblotting with phosphotyrosine-specific antibodies. The extent of tyrosine phosphorylation and amount of substrates were determined by quantifying the intensities of the immunoblots with NIH Image 1.61 software. […]

STAT3 = STAT3 Tyr 705 phosphorylation in IL-3 stimulated BMMCs treated with Src inhibitor; assay type: cell-based, mouse; conditions: IL-3 stimulated cd45+/+ or cd45-/- BMMCs
Protocol: as §1
(§2) Experiments were designed in order to assess whether Src kinases, known substrates of CD45, were deregulated during hyperactivation of the JAK-STAT pathway in cd45^−/− BMMCs. […] In addition, in IL-3 stimulated cd45^+/+ or cd45 ^−/− BMMCs, treatment with PP2 had no effect on the increased phosphorylation of the specific residues Tyr 1007 and TYR1008 in JAK2, Tyr 705 in STAT3, and Tyr 1022 and Tyr 1023 in JAK1 (see FIG. 2).

JAK1 = JAK1 Tyr 1022/Tyr 1023 phosphorylation in IL-3 stimulated BMMCs treated with Src inhibitor; assay type: cell-based, mouse; conditions: IL-3 stimulated cd45+/+ or cd45-/- BMMCs
Protocol: as §1, §2

## [Na+].[Na+].[Na+].[O]=[V]([O-])([O-])[O-] [vanadate, Na3 VO4]
rCD45
  effect on rCD45-mediated JAK2 dephosphorylation: inhibits
rCD45; listed as mandate
  effect on rCD45-mediated JAK2 dephosphorylation: blocked JAK2 dephosphorylation

## IFN-α
Coxsackievirus B3 (CVB3)
  suppression of CVB3 viral amplification: suppressed viral amplification more efficiently in cd45-deficient cells than in parental Jurkat cells

## CC(C)(C)n1nc(-c2ccc(Cl)cc2)c2c(N)ncnc21 [PP2]
JAK2; IL-3 stimulated cd45+/+ or cd45-/- BMMCs
  increased phosphorylation of Tyr 1007 and Tyr 1008 in JAK2: no effect
JAK2; cd45+/+ and cd45-/- BMMCs, addition of the inhibitor
  JAK2 activation: unaffected
STAT3
  increased phosphorylation of Tyr 705 in STAT3: no effect
JAK1
  increased phosphorylation of Tyr 1022 and Tyr 1023 in JAK1: no effect
